By pIC50 is commonly meant the negative decadic logarithm of the IC50, by convention in mol/L. Read a low pIC50 as a large IC50.

Molecules are shown by their SMILES. pIC50: −log10 of the molar value.

For one experiment, the target named is T1, human MER (Homo sapiens, UniProt Q12866).
T1 construct: purchased Invitrogen
T1 sequence (Q12866 21-999): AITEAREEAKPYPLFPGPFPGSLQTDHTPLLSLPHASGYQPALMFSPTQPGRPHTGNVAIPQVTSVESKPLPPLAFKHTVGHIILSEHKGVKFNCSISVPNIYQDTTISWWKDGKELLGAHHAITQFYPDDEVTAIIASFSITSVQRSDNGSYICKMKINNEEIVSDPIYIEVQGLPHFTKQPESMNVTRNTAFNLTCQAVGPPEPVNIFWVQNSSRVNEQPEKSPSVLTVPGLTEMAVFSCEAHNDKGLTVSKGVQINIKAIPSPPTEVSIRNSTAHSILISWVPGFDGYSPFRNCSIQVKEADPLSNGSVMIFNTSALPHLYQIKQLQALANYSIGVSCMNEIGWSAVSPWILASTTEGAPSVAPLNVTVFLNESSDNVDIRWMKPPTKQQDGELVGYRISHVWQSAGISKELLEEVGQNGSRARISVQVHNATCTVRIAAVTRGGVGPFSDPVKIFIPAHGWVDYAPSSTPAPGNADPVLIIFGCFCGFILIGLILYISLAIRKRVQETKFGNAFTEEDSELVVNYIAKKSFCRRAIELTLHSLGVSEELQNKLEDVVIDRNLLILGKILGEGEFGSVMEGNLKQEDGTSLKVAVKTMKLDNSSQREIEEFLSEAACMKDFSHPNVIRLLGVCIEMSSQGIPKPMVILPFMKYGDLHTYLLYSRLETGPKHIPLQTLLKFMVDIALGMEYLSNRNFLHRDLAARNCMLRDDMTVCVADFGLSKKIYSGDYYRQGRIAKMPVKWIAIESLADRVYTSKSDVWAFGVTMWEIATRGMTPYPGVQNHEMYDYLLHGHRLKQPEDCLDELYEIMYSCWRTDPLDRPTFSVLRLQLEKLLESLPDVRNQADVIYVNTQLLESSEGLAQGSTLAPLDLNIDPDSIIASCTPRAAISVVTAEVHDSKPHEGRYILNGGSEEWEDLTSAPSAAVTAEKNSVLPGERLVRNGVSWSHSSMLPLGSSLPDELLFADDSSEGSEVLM
Briefly: HTRF KinEASE-TK biochemical potency assay, MER. The conditions noted are these: 1 nM MER, 700 μM ATP, 800 nM TK Substrate-biotin. In short, it runs like this:
(§1)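 Recombinant human kinase preincubated 1 h at RT with compound, then reacted 2 h at RT with final 5 nM AXL or 1 nM TYRO3/MER, 800 nM TK Substrate-biotin and 700 μM ATP in HEPES pH 7.4, 10 mM MgCl2, 1% DMSO. Phosphorylation read by HTRF 665/620 ratio, expressed as percent activity.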
For orientation: TR-FRET usually uses a lanthanide donor and a delayed reading to cut background.

Another experiment deals with T2, Axl (Homo sapiens, UniProt P30530).
T2 sequence (P30530 26-894): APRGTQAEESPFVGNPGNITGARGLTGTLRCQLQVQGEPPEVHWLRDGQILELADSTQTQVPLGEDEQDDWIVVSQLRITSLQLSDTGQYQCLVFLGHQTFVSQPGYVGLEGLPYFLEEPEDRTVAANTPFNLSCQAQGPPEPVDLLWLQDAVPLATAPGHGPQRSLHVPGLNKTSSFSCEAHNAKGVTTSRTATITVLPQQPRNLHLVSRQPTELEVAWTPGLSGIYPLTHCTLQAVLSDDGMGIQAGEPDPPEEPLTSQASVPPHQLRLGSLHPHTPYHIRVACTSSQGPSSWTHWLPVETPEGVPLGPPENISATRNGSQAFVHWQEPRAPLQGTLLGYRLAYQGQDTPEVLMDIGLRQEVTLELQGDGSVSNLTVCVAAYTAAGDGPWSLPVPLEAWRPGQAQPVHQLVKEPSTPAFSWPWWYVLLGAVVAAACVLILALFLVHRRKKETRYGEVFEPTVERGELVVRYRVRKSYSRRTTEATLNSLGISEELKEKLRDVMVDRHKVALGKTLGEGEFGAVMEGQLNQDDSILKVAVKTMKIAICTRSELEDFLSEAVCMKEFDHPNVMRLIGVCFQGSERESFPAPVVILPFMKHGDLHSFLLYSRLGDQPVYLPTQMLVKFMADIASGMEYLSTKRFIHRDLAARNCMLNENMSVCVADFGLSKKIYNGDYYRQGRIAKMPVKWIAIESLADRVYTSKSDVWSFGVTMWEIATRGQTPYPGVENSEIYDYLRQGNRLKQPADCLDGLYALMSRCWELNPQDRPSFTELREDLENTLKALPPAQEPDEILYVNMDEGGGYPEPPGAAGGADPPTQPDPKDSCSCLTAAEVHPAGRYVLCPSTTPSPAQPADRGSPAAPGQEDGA
Briefly: HTRF KinEASE-TK biochemical potency assay, AXL. Also on record: purchased Invitrogen. The conditions noted are these: 5 nM AXL, 700 μM ATP, 800 nM TK Substrate-biotin. In short, it runs like this: as §1

Take `C[C@@H]1CCCN1C1(C)CCc2ccc(-c3cnc4[nH]nc(-c5ccc(C(=O)N6CCCC6)cc5)c4c3)cc2CC1` (stereo partly drawn) [Example 118, (2R)-2-Methyl-1-(7-methyl-2-{3-[4-(pyrrolidine-1-carbonyl)phenyl]-1H-pyrazolo[3,4-b]pyridin-5-yl}-6,7,8,9-tetrahydro-5H-benzo[7]annulen-7-yl)pyrrolidine]: the negative logarithm of the IC50 (pIC50) is less than 6.00 against human MER and greater than 7.00 against Axl.
For the compound `Cc1cc(-c2n[nH]c3ncc(-c4ccc5c(c4)CCN(C4CC4)CC5)cc23)ccc1C(=O)N1CCNCC1` [Example 119, 3-Cyclopropyl-7-{3-[3-methyl-4-(piperazine-1-carbonyl)phenyl]-1H-pyrazolo[3,4-b]pyridin-5-yl}-2,3,4,5-tetrahydro-1H-3-benzazepine], the pIC50 on human MER was less than 6.00; on Axl, greater than 7.00.
`CC1(N2CCc3ccc(-c4cnc5[nH]nc(-c6ccc(S(=O)(=O)C7CC7)cc6)c5c4)cc3CC2)CCCC1` [Example 120, 7-{3-[4-(Cyclopropanesulfonyl)phenyl]-1H-pyrazolo[3,4-b]pyridin-5-yl}-3-(1-methylcyclopentyl)-2,3,4,5-tetrahydro-1H-3-benzazepine]: the negative-log IC50 (pIC50) is less than 6.00 against human MER and greater than 7.00 on Axl.
As for `O=C1OCCN1c1ccc(-c2n[nH]c3ncc(-c4ccc5c(c4)CC[C@@H](N4C6COCC4C6)CC5)cc23)cc1` [Example 121, 3-(4-{5-[(7S)-7-{3-oxa-6-azabicyclo[3.1.1]heptan-6-yl}-6,7,8,9-tetrahydro-5H-benzo[7]annulen-2-yl]-2H-pyrazolo[3,4-b]pyridin-3-yl}phenyl)-1,3-oxazolidin-2-one], the values for the pIC50 at human MER and on Axl were less than 6.00 and greater than 7.00, respectively.
Consider `O=C1CCCN1c1ccc(-c2n[nH]c3ncc(-c4ccc5c(c4)CC[C@@H](N4C6COCC4C6)CC5)cc23)cc1` [Example 122, 1-(4-{5-[(7S)-7-{3-oxa-6-azabicyclo[3.1.1]heptan-6-yl}-6,7,8,9-tetrahydro-5H-benzo[7]annulen-2-yl]-2H-pyrazolo[3,4-b]pyridin-3-yl}phenyl)pyrrolidin-2-one], for which the pIC50 against human MER was less than 6.00; at Axl, greater than 7.00.
For `COCCOc1ccc(-c2n[nH]c3ncc(-c4ccc5c(c4)CC[C@@H](N4C6COCC4C6)CC5)cc23)cc1` [Example 123, 6-[(7S)-2-{3-[4-(2-methoxyethoxy)phenyl]-2H-pyrazolo[3,4-b]pyridin-5-yl}-6,7,8,9-tetrahydro-5H-benzo[7]annulen-7-yl]-3-oxa-6-azabicyclo[3.1.1]heptane] the same measures were less than 6.00 and greater than 7.00.
Take `CC(C)(C)S(=O)(=O)c1ccc(-c2n[nH]c3ncc(-c4ccc5c(c4)CC[C@@H](N4C6COCC4C6)CC5)cc23)cc1` [Example 124, 6-[(7S)-2-{3-[4-(2-methylpropane-2-sulfonyl)phenyl]-2H-pyrazolo[3,4-b]pyridin-5-yl}-6,7,8,9-tetrahydro-5H-benzo[7]annulen-7-yl]-3-oxa-6-azabicyclo[3.1.1]heptane]: the pIC50 on human MER was 6.00 to 7.00; at Axl, greater than 7.00.
For `CN(C)C(=O)c1ccc(-c2n[nH]c3ncc(-c4ccc5c(c4)CC[C@@H](N4C6COCC4C6)CC5)cc23)cc1` [Example 125, N,N-Dimethyl-4-{5-[(7S)-7-{3-oxa-6-azabicyclo[3.1.1]heptan-6-yl}-6,7,8,9-tetrahydro-5H-benzo[7]annulen-2-yl]-2H-pyrazolo[3,4-b]pyridin-3-yl}benzamide], the values for the pIC50 against human MER and against Axl were 6.00 to 7.00 and greater than 7.00, respectively.
In the case of `c1cc2c(cc1-c1cnc3[nH]nc(-c4ccc(N5C[C@H]6C[C@@H]5CO6)cc4)c3c1)CC[C@@H](N1C3COCC1C3)CC2` [Example 126, (1R,4R)-5-(4-{5-[(7S)-7-{3-oxa-6-azabicyclo[3.1.1]heptan-6-yl}-6,7,8,9-tetrahydro-5H-benzo[7]annulen-2-yl]-2H-pyrazolo[3,4-b]pyridin-3-yl}phenyl)-2-oxa-5-azabicyclo[2.2.1]heptane], the pIC50 against human MER was less than 6.00; against Axl it was greater than 7.00.
For `FC1CN(c2ccc(-c3c[nH]c4ncc(-c5ccc6c(c5)CC[C@@H](N5C7COCC5C7)CC6)cc34)cc2)C1` [Example 127, 6-[(7S)-2-{3-[4-(3-fluoroazetidin-1-yl)phenyl]-1H-pyrrolo[2,3-b]pyridin-5-yl}-6,7,8,9-tetrahydro-5H-benzo[7]annulen-7-yl]-3-oxa-6-azabicyclo[3.1.1]heptane] the same measures were less than 6.00 and greater than 7.00.

These data come from patent US20240246967A1, “AXL COMPOUNDS” (ARCUS BIOSCIENCES, INC., priority 2021, published 2024).
